Reference: US11407740B2 (priority 2018, dated 2022)
In brackets after ≈: the same amount, converted by molar mass.

System: E. coli
Assay: Bacterial susceptibility testing, MIC by broth microdilution (CLSI)
Settings: for MIC: Escherichia coli, read-out: E. coli MIC, broth microdilution, 35° C., 18-24 h; for E. coli MIC: broth microdilution, 35° C., 18-24 h

COC1CN(Cc2ccc(C#Cc3ccc(C(CNCC(F)CO)Cc4nc[nH]c(=O)c4O)cc3)cc2)C1 (centres unmarked) [Compound 249]
MIC: 1 to 8 µg/mL (≈ 1.92 to 15.4 µM)

N#C[C@H]1CCN(Cc2ccc(C#Cc3ccc(C(CO)Cc4nc[nH]c(=O)c4O)cc3)cc2)C1 (some centres unmarked) [Compound 34]
MIC: < 1 µg/mL

C[C@@H](CF)NCC(Cc1nc[nH]c(=O)c1O)c1ccc(C#Cc2ccc(CN3CC(C4COC4)C3)cc2)cc1 (mixture of isomers) [Compound 126]
MIC: 1 to 8 µg/mL

NC(Cc1nc[nH]c(=O)c1O)c1ccc(-c2ccc(CCN3CCOCC3)cc2)cc1 (centres unmarked) [Compound 214]
MIC: 8 to 32 µg/mL (≈ 19 to 76.1 µM)

O=c1[nH]cnc(C[C@H](CO)c2ccc(C#C[C@H]3CC[C@H](CN4CCOCC4)CC3)cc2)c1O [Compound 204]
MIC: 8 to 32 µg/mL (≈ 17.7 to 70.9 µM)

O=c1[nH]cnc(C[C@H](CO)c2ccc(C#Cc3ccc(CN(CCO)[C@H]4CCOC4)cc3)cc2)c1O (single isomer, unassigned) [Compound 243]
MIC: < 1 µg/mL

C[C@@H](CO)NCC(Cc1nc[nH]c(=O)c1O)c1ccc(C#Cc2ccc(CN3CCOCC3)cc2)cc1 (mixture of isomers) [Compound 167]
MIC: < 1 µg/mL

N=S1(=O)CCC(NCc2ccc(C#Cc3ccc(C(CO)Cc4nc[nH]c(=O)c4O)cc3)cc2)C1 (centres unmarked) [Compound 56]
MIC: 1 to 8 µg/mL (≈ 2.03 to 16.2 µM)

CC(=O)N1CC[C@@H](NCc2ccc(C#Cc3ccc(C(CO)Cc4nc[nH]c(=O)c4O)cc3)cc2)C1 (single isomer, unassigned) [Compound 234]
E. coli MIC: A (A: ≤1 μg/mL)

COC1CN(CC(Cc2nc[nH]c(=O)c2O)c2ccc(C#Cc3ccc(CN4CCOCC4)cc3)cc2)C1 (centres unmarked) [Compound 71]
MIC: < 1 µg/mL

O=c1[nH]cnc(CC(CNCC(F)F)c2ccc(C#Cc3ccc(CN4CCOCC4)cc3)cc2)c1O (centres unmarked) [Compound 115]
MIC: < 1 µg/mL

N#CCCNCC(Cc1nc[nH]c(=O)c1O)c1ccc(C#Cc2ccc(CN3CC(CC#N)C3)cc2)cc1 (centres unmarked) [Compound 134]
MIC: 8 to 32 µg/mL (≈ 15.8 to 63.2 µM)

CS(=O)(=O)NC(Cc1nc[nH]c(=O)c1O)c1ccc(C#Cc2ccc(CN3CCOCC3)cc2)cc1 (centres unmarked) [Compound 289]
MIC: < 1 µg/mL

O=c1[nH]cnc(C[C@H](CN2CC(F)C2)c2ccc(C#Cc3ccc(CN4CCOCC4)cc3)cc2)c1O (single isomer, unassigned) [Compound 216]
MIC: < 1 µg/mL

O=C(NC1CC(F)(F)C1)C(Cc1nc[nH]c(=O)c1O)c1ccc(C#Cc2ccc(CN3CCOCC3)cc2)cc1 (centres unmarked) [Compound 25]
MIC: 1 to 8 µg/mL (≈ 1.82 to 14.6 µM)

O=c1[nH]cnc(C[C@H](CN2CC(O)C2)c2ccc(C#Cc3ccc(CN4CCOCC4)cc3F)cc2)c1O (single isomer, unassigned) [Compound 275]
MIC: < 1 µg/mL

O=c1[nH]cnc(C[C@H](CN2CC(O)C2)c2ccc(C#Cc3ccc(CN4CCOCC4)c(F)c3)cc2)c1O (single isomer, unassigned) [Compound 276]
MIC: 1 to 8 µg/mL (≈ 1.93 to 15.4 µM)

CC(=O)N1CC[C@@H](NCc2ccc(C#Cc3ccc(C(CO)Cc4nc[nH]c(=O)c4O)cc3)cc2)C1 (mixture of isomers) [Compound 232]
MIC: < 1 µg/mL

N=[S@@]1(=O)CC[C@H](NCc2ccc(C#Cc3ccc(C(CO)Cc4nc[nH]c(=O)c4O)cc3)cc2)C1 (mixture of isomers) [Compound 151]
MIC: 1 to 8 µg/mL

Cc1nccn1CC(Cc1nc[nH]c(=O)c1O)c1ccc(C#Cc2ccc(CN3CCOCC3)cc2)cc1 (centres unmarked) [Compound 305]
MIC: < 1 µg/mL

C[C@H](O)CNC[C@H](Cc1nc[nH]c(=O)c1O)c1ccc(C#Cc2ccc(CN3CCOCC3)cc2)cc1 (single isomer, unassigned) [Compound 246]
MIC: 1 to 8 µg/mL (≈ 1.99 to 15.9 µM)

O=c1[nH]cnc(CC(CN[C@H]2C[C@H](F)C2)c2ccc(C#Cc3ccc(CN4CCOCC4)cc3)cc2)c1O (some centres unmarked) [Compound 80]
E. coli MIC: A (A: ≤1 μg/mL)

C[C@@H](CF)NCC(Cc1nc[nH]c(=O)c1O)c1ccc(C#Cc2ccc(CN[C@@H]3CCOC3)cc2)cc1 (mixture of isomers) [Compound 108]
MIC: < 1 µg/mL

O=C(CO)N1CC[C@@H](NCc2ccc(C#Cc3ccc(C(CO)Cc4nc[nH]c(=O)c4O)cc3)cc2)C1 (single isomer, unassigned) [Compound 45]
E. coli MIC: B (B: >1 μg/mL to ≤8.0 μg/mL)

N#CC1CN(C[C@H](Cc2nc[nH]c(=O)c2O)c2ccc(C#Cc3ccc(CN4CC[C@H](C#N)C4)cc3)cc2)C1 (single isomer, unassigned) [Compound 235]
MIC: < 1 µg/mL

O=c1[nH]cnc(CC(CNCCCF)c2ccc(C#Cc3ccc(CN4CCOCC4)cc3)cc2)c1O (centres unmarked) [Compound 106]
E. coli MIC: B (B: >1 μg/mL to ≤8.0 μg/mL)

O=C(CO)N1CC[C@@H](NCc2ccc(C#Cc3ccc(C(CO)Cc4nc[nH]c(=O)c4O)cc3)cc2)C1 (mixture of isomers) [Compound 44]
MIC: < 1 µg/mL

NC[C@@H]1CCCN1Cc1ccc(C#Cc2ccc(C(CO)Cc3nc[nH]c(=O)c3O)cc2)cc1 (mixture of isomers) [Compound 145]
MIC: 1 to 8 µg/mL

COC1CN(Cc2ccc(C#Cc3ccc(C(Cc4nc[nH]c(=O)c4O)CN4CC(F)C4)cc3)cc2)C1 (centres unmarked) [Compound 160]
E. coli MIC: A (A: ≤1 μg/mL)

CC(=O)N1CC[C@H](NCC(Cc2nc[nH]c(=O)c2O)c2ccc(C#Cc3ccc(CN4CCOCC4)cc3)cc2)C1 (single isomer, unassigned) [Compound 182]
MIC: 1 to 8 µg/mL (≈ 1.8 to 14.4 µM)

O=c1[nH]cnc(CC(CO)c2ccc(C#Cc3ccc(CN4CC5(CCCO5)C4)cc3)cc2)c1O (centres unmarked) [Compound 42]
MIC: < 1 µg/mL

C[C@@H](CF)NCC(Cc1nc[nH]c(=O)c1O)c1ccc(C#Cc2ccc(C(O)CO)cc2)cc1 (single isomer, unassigned) [Compound 252]
MIC: < 1 µg/mL

C[C@@H](CF)NCC(Cc1nc[nH]c(=O)c1O)c1ccc(C#Cc2ccc(CN3CC4COCC4C3)cc2)cc1F (single isomer, unassigned) [Compound 239]
MIC: < 1 µg/mL

COC1CN(Cc2ccc(C#Cc3ccc([C@@H](CNCC(F)F)Cc4nc[nH]c(=O)c4O)c(F)c3)cc2)C1 (single isomer, unassigned) [Compound 282]
MIC: < 1 µg/mL

O=c1[nH]cnc(CC(CN[C@@H]2CCOC2)c2ccc(C#Cc3ccc(CN4CCOCC4)cc3)cc2)c1O (single isomer, unassigned) [Compound 163]
E. coli MIC: A (A: ≤1 μg/mL)

O=c1[nH]cnc(CC(CNC2CC2)c2ccc(C#Cc3ccc(CN4CCOCC4)cc3)cc2)c1O (centres unmarked) [Compound 119]
E. coli MIC: A (A: ≤1 μg/mL)

CNC(Cc1nc[nH]c(=O)c1O)c1ccc(C#Cc2ccc(CN[C@@H]3CCOC3)cc2)cc1 (mixture of isomers) [Compound 265]
MIC: < 1 µg/mL

COC(=O)C(Cc1nc[nH]c(=O)c1O)c1ccc(C#Cc2ccc(CN3CCOCC3)cc2)cc1 (centres unmarked) [Compound 24]
MIC: < 1 µg/mL

O=C(CO)N1CCC(C#Cc2ccc(C(CO)Cc3nc[nH]c(=O)c3O)cc2)CC1 (centres unmarked) [Compound 264]
MIC: > 32 µg/mL

COC1CN(Cc2ccc(C#Cc3ccc(C(C)(CN[C@@H](C)CF)Cc4nc[nH]c(=O)c4O)cc3)cc2)C1 (mixture of isomers) [Compound 143]
MIC: < 1 µg/mL

O=c1[nH]cnc(CC(CNC2CC(F)(F)C2)c2ccc(C#Cc3ccc(CN4CCOCC4)cc3)cc2)c1O (centres unmarked) [Compound 112]
MIC: < 1 µg/mL

O=C(NCCF)C(Cc1nc[nH]c(=O)c1O)c1ccc(C#Cc2ccc(CN3CCOCC3)cc2)cc1 (centres unmarked) [Compound 20]
E. coli MIC: A (A: ≤1 μg/mL)

O=c1[nH]cnc(CC(CO)c2ccc(C#Cc3ccc(CNC4COC4)cc3)cc2)c1O (centres unmarked) [Compound 49]
MIC: < 1 µg/mL

O=c1[nH]cnc(C[C@H](CO)c2ccc(C#Cc3ccc(C(O)CO)cc3)cc2)c1O (single isomer, unassigned) [Compound 270]
MIC: 1 to 8 µg/mL (≈ 2.46 to 19.7 µM)

O=c1[nH]cnc(CC(CO)c2ccc(C#Cc3ccc(CN[C@H]4CCOC4)cc3)cc2)c1O (mixture of isomers) [Compound 8]
MIC: < 1 µg/mL

C[C@H](CO)NCC(Cc1nc[nH]c(=O)c1O)c1ccc(C#Cc2ccc(CN3CCOCC3)cc2)cc1 (single isomer, unassigned) [Compound 170]
MIC: 1 to 8 µg/mL (≈ 1.99 to 15.9 µM)

CC(CO)(Cc1nc[nH]c(=O)c1O)c1ccc(C#Cc2ccc(CN[C@H]3CCOC3)cc2)cc1 (mixture of isomers) [Compound 32]
MIC: < 1 µg/mL

COC1CN(Cc2ccc(C#Cc3ccc(C(CN[C@H](C)CF)Cc4nc[nH]c(=O)c4O)cc3)cc2)C1 (single isomer, unassigned) [Compound 69]
MIC: < 1 µg/mL

O=c1[nH]cnc(CC(CO)c2ccc(C#Cc3ccc(CNCC4CC4)cc3)cc2)c1O (centres unmarked) [Compound 58]
MIC: 1 to 8 µg/mL (≈ 2.33 to 18.6 µM)

N#CC1CN(CC(Cc2nc[nH]c(=O)c2O)c2ccc(C#Cc3ccc(CN4CCOCC4)cc3)cc2)C1 (centres unmarked) [Compound 102]
MIC: < 1 µg/mL

O=C(CO)N1CC[C@@H](NCc2ccc(C#Cc3ccc(C(CO)Cc4nc[nH]c(=O)c4O)cc3)cc2)C1 (single isomer, unassigned) [Compound 46]
E. coli MIC: A (A: ≤1 μg/mL)

O=C(CO)NC1CCN(Cc2ccc(C#Cc3ccc(C(CO)Cc4nc[nH]c(=O)c4O)cc3)cc2)CC1 (centres unmarked) [Compound 242]
E. coli MIC: A (A: ≤1 μg/mL)

N#C[C@@H]1CCN(Cc2ccc(C#Cc3ccc(C(CO)Cc4nc[nH]c(=O)c4O)cc3)cc2)C1 (some centres unmarked) [Compound 36]
MIC: < 1 µg/mL

COC1CN(Cc2ccc(C#Cc3ccc(C(CNC4CC4)Cc4nc[nH]c(=O)c4O)cc3)cc2)C1 (centres unmarked) [Compound 224]
E. coli MIC: B (B: >1 μg/mL to ≤8.0 μg/mL)

O=c1[nH]cnc(CC(CNCc2ccn[nH]2)c2ccc(C#Cc3ccc(CN4CCOCC4)cc3)cc2)c1O (centres unmarked) [Compound 184]
MIC: 1 to 8 µg/mL (≈ 1.91 to 15.2 µM)

NC(Cc1nc[nH]c(=O)c1O)c1ccc(C#Cc2ccc(CN[C@@H]3CCOC3)cc2)cc1 (mixture of isomers) [Compound 173]
MIC: < 1 µg/mL

CS(=O)(=O)N[C@@H](Cc1nc[nH]c(=O)c1O)c1ccc(C#Cc2ccc(CN3CCNC[C@H]3CO)cc2)cc1 (single isomer, unassigned) [Compound 297]
MIC: 8 to 32 µg/mL (≈ 14.9 to 59.5 µM)

COC1CN(Cc2ccc(C#Cc3ccc([C@@H](CNC4(C)CC4)Cc4nc[nH]c(=O)c4O)cc3)cc2)C1 (single isomer, unassigned) [Compound 251]
MIC: < 1 µg/mL

O=C1N(C(CO)Cc2nc[nH]c(=O)c2O)Cc2cc(C#Cc3ccc(CN4CCOCC4)cc3)cn21 (centres unmarked) [Compound 193]
MIC: 1 to 8 µg/mL (≈ 2.04 to 16.3 µM)

O=c1[nH]cnc(CC(CO)n2ccc(C#Cc3ccc(CN4CCOCC4)cc3)cc2=O)c1O (centres unmarked) [Compound 211]
MIC: 8 to 32 µg/mL (≈ 17.3 to 69.2 µM)

O=c1[nH]cnc(CC(CO)c2ccc(C#Cc3ccc(CN4CCOCC4)cc3)cn2)c1O (centres unmarked) [Compound 196]
MIC: 1 to 8 µg/mL (≈ 2.24 to 17.9 µM)

O=c1[nH]cnc(CC(CO)c2ccc(C#Cc3ccc(CN4CCOCC4)nc3)cc2)c1O (centres unmarked) [Compound 195]
MIC: 1 to 8 µg/mL (≈ 2.24 to 17.9 µM)
